Read-outs that look alike come from different tables or passages of the source.

The target of data set [1] is T1, ALDH1A3 (Homo sapiens, UniProt P47895).
T1 sequence (P47895 1-512): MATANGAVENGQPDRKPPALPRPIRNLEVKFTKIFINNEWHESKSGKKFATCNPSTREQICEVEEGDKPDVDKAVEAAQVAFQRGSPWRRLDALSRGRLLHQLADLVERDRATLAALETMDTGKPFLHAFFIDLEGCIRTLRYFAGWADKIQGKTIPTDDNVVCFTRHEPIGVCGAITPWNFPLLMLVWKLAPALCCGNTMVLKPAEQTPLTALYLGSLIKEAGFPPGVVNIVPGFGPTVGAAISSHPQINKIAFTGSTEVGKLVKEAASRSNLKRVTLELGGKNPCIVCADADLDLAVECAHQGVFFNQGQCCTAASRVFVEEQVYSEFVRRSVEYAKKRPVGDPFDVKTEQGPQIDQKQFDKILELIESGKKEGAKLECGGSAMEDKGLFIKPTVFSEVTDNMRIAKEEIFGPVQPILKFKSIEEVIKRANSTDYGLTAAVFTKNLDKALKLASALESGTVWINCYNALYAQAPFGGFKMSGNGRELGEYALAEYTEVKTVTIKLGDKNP
Kind of data set: Microscale thermophoresis (MST) binding. The note with it: biophysical assay (Table 1). Also noted: made in house; host or cells: BL21-DE3 E. coli.

A short description of data set [2]: Microsomal stability (mouse). The note with it: microsomes, read-out: Microsomal T1/2 (mouse). It counts as in vitro ADME.
For data set [3], the target named is T2, human ALDH2 (Homo sapiens, UniProt P05091).
T2 construct: made in house; host or cells: BL21-DE3 E. coli
Kind of data set: Recombinant enzyme activity assay. In kind it is biochemical. The note with it: dose titration. The protocol:
(§1) Human and mouse ALDH enzymes were cloned from respective reference RNA, constructed into plasmids using restriction enzyme cloning and confirmed by Sanger Sequencing. Genes were cloned into a vector containing the T7 promoter for bacterial expression and into a lentiviral expression vector for cell line expression as previously described.[78] Recombinant protein was isolated by inducing BL21-DE3 E. coli (Thermo Fisher) containing the respective plasmid for 20 h at room temperature, shaking, with 300 μM IPTG (Selleck Chem). Cell disruption was achieved via ultrasonication (Φ10, 3s on/6s off, 25min) in 1L of amplified bacterial culture. The target protein was then purified using Ni NTA beads 6FF affinity chromatography. Lysis buffer consisted of 50 mM Na2HPO4, 300 mM NaCl, 1 mM β-ME, pH7.5. The column (2 mL) was washed with 50 mM Na2HPO4, 300 mM NaCl, 1 mM β-ME, 20 mM Imidazole, pH7.5. Elution was performed using 3 mL of 50 mM Na2HPO4, 300 mM NaCl, 1 mM β-ME, 250 mM Imidazole, pH7.5. Following affinity chromatography, the protein underwent further purification via Gel filtration chromatography using a Superdex200 column. Aliquots were quality controlled against a pure internal standard enzyme and/or by western blot to confirm enzyme expression. Purified enzyme was used for biochemical and biophysical assays.
(§2) For the recombinant enzyme activity assay, enzyme aliquots were thawed on ice for 4 h prior to analysis and the protocol was performed as described[8] with the following key changes: 1) Final concentrations of NAD+ (Gold Bio) were 200 μM and BSA were 1 mg/mL 2) Propanaldehyde was used as the substrate for ALDH1A1 and ALDH2. 3) Reaction velocity was monitored through diaphorase (clostridium) coupled reduction of resazurin (100 μM) monitored with ex/em of 560nm/590 nm in order to regenerate NAD+ and thus maintain constant cofactor concentration as well as to avoid high absorbance values of many screening compounds at the NADH absorbance. Assays were conducted at room temperature (controlled to 21-23C) and all buffers were maintained at pH 7.5. For all reactions, pre-incubation time was approximately 2 min while the reaction monitoring was performed over 10 min.

Data set [4] concerns the target T3, human ALDH1A2 (Homo sapiens, UniProt O94788).
T3 construct: made in house; host or cells: BL21-DE3 E. coli
T3 sequence (O94788 1-518): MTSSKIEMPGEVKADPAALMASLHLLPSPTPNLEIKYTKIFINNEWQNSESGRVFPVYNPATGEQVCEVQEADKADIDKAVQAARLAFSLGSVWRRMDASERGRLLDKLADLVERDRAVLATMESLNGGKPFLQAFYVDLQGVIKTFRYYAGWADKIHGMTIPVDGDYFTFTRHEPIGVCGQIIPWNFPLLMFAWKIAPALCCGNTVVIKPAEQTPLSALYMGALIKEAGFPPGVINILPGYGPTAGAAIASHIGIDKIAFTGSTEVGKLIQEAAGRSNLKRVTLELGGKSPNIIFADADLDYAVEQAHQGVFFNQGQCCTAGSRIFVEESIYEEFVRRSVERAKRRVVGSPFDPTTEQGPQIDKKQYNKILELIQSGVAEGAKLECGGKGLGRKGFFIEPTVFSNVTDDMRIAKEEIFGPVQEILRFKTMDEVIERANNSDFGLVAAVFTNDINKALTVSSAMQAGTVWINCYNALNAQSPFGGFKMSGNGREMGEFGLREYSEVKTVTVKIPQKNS
Kind of data set: Recombinant enzyme activity assay. It counts as biochemical. The note with it: for IC50: recombinant activity assay (Table 1), read-out: IC50 molecular, human ALDH1A2. As to the method:
as §1, §2

Data set [5] deals with T4, mouse ALDH1A3 (Mus musculus, UniProt Q9JHW9).
T4 construct: made in house; host or cells: BL21-DE3 E. coli
T4 sequence (Q9JHW9 1-512): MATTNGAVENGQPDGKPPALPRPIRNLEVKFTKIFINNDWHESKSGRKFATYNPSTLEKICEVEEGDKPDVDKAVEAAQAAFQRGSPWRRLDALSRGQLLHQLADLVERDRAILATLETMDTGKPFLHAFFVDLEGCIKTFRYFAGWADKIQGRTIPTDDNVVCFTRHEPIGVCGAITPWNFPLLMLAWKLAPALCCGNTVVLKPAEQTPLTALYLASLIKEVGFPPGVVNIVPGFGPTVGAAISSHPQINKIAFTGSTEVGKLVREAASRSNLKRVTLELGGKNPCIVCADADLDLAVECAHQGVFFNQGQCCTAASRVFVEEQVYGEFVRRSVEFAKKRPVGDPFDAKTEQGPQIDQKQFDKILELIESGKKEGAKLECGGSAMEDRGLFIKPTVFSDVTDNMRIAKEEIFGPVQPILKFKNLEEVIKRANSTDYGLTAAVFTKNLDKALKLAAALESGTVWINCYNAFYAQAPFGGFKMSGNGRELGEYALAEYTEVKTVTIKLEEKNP
Put plainly: Recombinant enzyme activity assay. It counts as biochemical. As to the method: as §1, §2

Data set [6] addresses T5, mouse ALDH1A2 (Mus musculus, UniProt Q62148).
T5 construct: made in house; host or cells: BL21-DE3 E. coli
Put plainly: Recombinant enzyme activity assay. It counts as biochemical. The note with it: recombinant activity assay (Table 1); read-out: IC50 molecular, mouse ALDH1A2. The protocol: as §1, §2

The target of data set [7] is T6, human ALDH1A3 in A375 cells (Homo sapiens, UniProt P47895).
T6 construct: the cell lines with high endogenous ALDH1A3 activity: MDA-MB-468 (triple-negative breast cancer), A375 (melanoma), and LN229 (glioblastoma); endogenous in cells; host or cells: A375
T6 sequence (P47895 1-512): T1 sequence (P47895 1-512)
Put plainly: Aldefluor assay in A375 cells. It counts as cell-based. The note with it: for Aldefluor activity at 100 nM (in words): A375 cells; for EC50: Aldefluor in A375 cells, read-out: EC50 cellular, human ALDH1A3.
Procedure: In addition, cells were suspended at a concentration of 100,000 cells per mL. Finally, DMSO was added to at 1% final in all cells to improve kinetics of the assay. For compound titrations, concentrated compound stock was added first to tubes and a uniform Aldefluor buffer containing the cell suspension was added to dilute to final volumes. Cells were analyzed by a BD LSRII for flow cytometry and were sorted using a FACSAria Fusion cell sorter (BD Biosciences) equipped with a 70 micron nozzle. Sample and sort collection tubes were kept at 4°C. […] DAPI was used as a live-dead indicator.

T5 sequence (Q62148 whole entry): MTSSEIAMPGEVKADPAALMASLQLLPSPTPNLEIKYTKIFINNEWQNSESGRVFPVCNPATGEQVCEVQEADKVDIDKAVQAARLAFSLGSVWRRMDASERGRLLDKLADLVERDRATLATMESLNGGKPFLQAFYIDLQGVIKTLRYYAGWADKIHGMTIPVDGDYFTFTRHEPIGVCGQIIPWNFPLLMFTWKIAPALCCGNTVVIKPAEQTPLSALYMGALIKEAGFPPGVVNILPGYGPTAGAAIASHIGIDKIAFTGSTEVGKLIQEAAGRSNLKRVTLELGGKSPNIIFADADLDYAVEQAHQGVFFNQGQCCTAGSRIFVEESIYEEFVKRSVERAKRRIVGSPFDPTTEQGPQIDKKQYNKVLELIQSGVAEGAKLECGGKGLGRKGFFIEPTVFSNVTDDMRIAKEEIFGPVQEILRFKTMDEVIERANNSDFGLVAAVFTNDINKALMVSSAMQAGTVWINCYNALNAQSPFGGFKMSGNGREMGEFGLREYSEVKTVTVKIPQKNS
T2 sequence (P05091 18-517): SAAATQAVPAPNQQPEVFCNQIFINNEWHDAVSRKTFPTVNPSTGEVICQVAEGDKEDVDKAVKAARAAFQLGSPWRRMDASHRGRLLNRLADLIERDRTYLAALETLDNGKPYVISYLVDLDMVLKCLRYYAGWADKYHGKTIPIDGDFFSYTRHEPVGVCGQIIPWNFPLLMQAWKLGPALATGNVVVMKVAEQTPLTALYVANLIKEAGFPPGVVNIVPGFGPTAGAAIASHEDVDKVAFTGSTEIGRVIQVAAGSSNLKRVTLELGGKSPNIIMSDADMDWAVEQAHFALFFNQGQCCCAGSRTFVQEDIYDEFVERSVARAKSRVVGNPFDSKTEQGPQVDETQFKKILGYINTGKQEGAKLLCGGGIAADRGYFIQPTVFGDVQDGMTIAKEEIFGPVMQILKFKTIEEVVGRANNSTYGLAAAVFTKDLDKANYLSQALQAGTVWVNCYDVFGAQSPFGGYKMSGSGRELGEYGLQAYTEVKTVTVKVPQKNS

For `CCc1ccccc1C(=O)Nc1cc2c(cc1F)NC(=O)CC2` [MBE1.5, 2-ethyl-N-(7-fluoro-2-oxo-3,4-dihydro-1H-quinolin-6-yl)benzamide], the Kd in data set [1] stood at 42.1 nM. Also, the half-life in data set [2] stood at 1.87 h. Moreover, the “inhibitory activity against ALDH2 (in words)” value in data set [3] is “no inhibition”. Further, in data set [4] (dose titration, up to 10 μM), the “inhibitory activity against ALDH1A2 (in words)” value is listed as “minimal inhibition”. Further, the IC50 in data set [4] is 5000 nM; in data set [5] (recombinant activity assay (Table 1), read-out: IC50 molecular, mouse ALDH1A3) it was 149 nM; in data set [6], 4000 nM. Further, the “Aldefluor activity at 100 nM (in words)” value in data set [7] is reported as “highest activity”. Also, the EC50 in data set [7] was determined as 1.9 nM.

`CCc1cnccc1C(=O)Nc1cc2c(cc1F)NC(=O)CC2` [MBE1, 3-ethyl-N-(7-fluoro-2-oxo-3,4-dihydro-1H-quinolin-6-yl)pyridine-4-carboxamide] had a Kd in data set [1] of 71.7 nM. The half-life in data set [2] was 0.727 h. The “inhibitory activity against ALDH2 (in words)” value in data set [3] was “no inhibition”. For the same molecule, the “fold lower affinity for ALDH1A2 than for ALDH1A3” value in data set [4] (biochemical inhibition of each isoform) is listed as 4 fold. In addition, the concentration for half-maximal inhibition (IC50) in data set [4] turned out to be 3330 nM; in data set [5] (dose titration, substrate competition assay, recombinant mouse ALDH1A3, 4-parameter equation, read-out: muALDH1A3 IC50), 209 nM; in data set [6] it was 3330 nM. The “Aldefluor activity at 100 nM (in words)” value in data set [7] is listed as “highest activity”. Further, in data set [7], the 50% effective concentration (EC50) amounted to 5.1 nM.

(Values after PMC12595434, “Development of retinoid nuclear receptor pathway antagonists through targeting aldehyde dehydrogenase 1A3” (iScience, 2025).)
